From PMC12150326 (The Journal of Organic Chemistry, 2025)
Where two headings read alike, the source gives them in different places.

Columns and labels:
[1] = tested on: colchicine site of bovine brain tubulin; assay type: binding; settings: for Kd: tubulin binding constant, 25 °C
Protocol: Inhibition of this fluorescence increase was measured and converted to K d for the test compound as described.

DU-145 = assay type: cell-based, human
In short: (§1)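 NCI-60 panel, 5-dose format (100 μM → 0.01 μM, tenfold steps). TGI values used for COMPARE vs. known tubulin inhibitors.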

SF-268 = assay type: cell-based, human
In short: as §1

T-47D = assay type: cell-based, human; settings: for GI50: Homo sapiens, T47D
In short: (§2)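 Concentrations tested in the NCI-60 panel were 0.01, 0.1, 1, 10 and 100 μM. The endpoint taken forward was TGI, whose pattern across lines was run through COMPARE alongside earlier tubulin inhibitors.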

SF-295 = assay type: cell-based, human; settings: for GI50: Homo sapiens
In short: as §2

ACHN = assay type: cell-based, human; settings: for GI50: Homo sapiens
In short: as §1

NCI-H23 = assay type: cell-based, human; settings: for GI50: Homo sapiens
In short: as §2

CCRF-CEM = assay type: cell-based, human; settings: for GI50: Homo sapiens
In short: as §1

UACC-257 = assay type: cell-based, human; settings: for GI50: Homo sapiens
In short: as §2

HS 578T = assay type: cell-based, human; settings: for GI50: Homo sapiens
In short: as §2

HCT-116 = assay type: cell-based, human; settings: for GI50: Homo sapiens
In short: as §2

HOP-92 = assay type: cell-based, human; settings: for GI50: Homo sapiens
In short: as §2

KM12 = assay type: cell-based, human
In short: as §1

MDA-MB-435 = assay type: cell-based, human; settings: for GI50: Homo sapiens
In short: as §1

COc1cc(C)c(-c2ccc(OC)c(=O)cc2C)c(OC)c1OC (single isomer, unassigned) [(aR)-6]
binding constant fold less potent than 3 [1]: 5–30 fold
Kd ([1]; read-out: Kd): 95 µM
Log10GI50 (DU-145): -5.45 Molar
Log10LC50 (DU-145): > -4.00 Molar
Log10TGI (DU-145): > -4.00 Molar
GI50 (DU-145; Homo sapiens): 3.55 µM
Log10GI50 (DU-145; listed as (aR)-DM-MTC): -5.45 Molar
Log10GI50 (SF-268): -5.26 Molar
Log10LC50 (SF-268): > -4.00 Molar
Log10TGI (SF-268): > -4.00 Molar
GI50 (SF-268; Homo sapiens): 5.5 µM
Log10GI50 (SF-268; listed as (aR)-DM-MTC): -5.26 Molar
Log10GI50 (T-47D): -5.15 Molar
Log10LC50 (T-47D): > -4.00 Molar
Log10TGI (T-47D): > -4.00 Molar
GI50 (T-47D): 7.08 µM
Log10GI50 (T-47D; listed as (aR)-DM-MTC): -5.15 Molar
Log10GI50 (SF-295): -5.76 Molar
Log10LC50 (SF-295): > -4.00 Molar
Log10TGI (SF-295): > -4.00 Molar
GI50 (SF-295): 1.74 µM
Log10GI50 (SF-295; listed as (aR)-DM-MTC): -5.76 Molar
Log10GI50 (ACHN): -5.27 Molar
Log10LC50 (ACHN): > -4.00 Molar
Log10TGI (ACHN): > -4.00 Molar
GI50 (ACHN): 5.37 µM
Log10GI50 (ACHN; listed as (aR)-DM-MTC): -5.27 Molar
Log10GI50 (NCI-H23): -5.39 Molar
Log10LC50 (NCI-H23): > -4.00 Molar
Log10TGI (NCI-H23): > -4.00 Molar
GI50 (NCI-H23): 4.07 µM
Log10GI50 (NCI-H23; listed as (aR)-DM-MTC): -5.39 Molar
Log10GI50 (CCRF-CEM): -5.71 Molar
Log10LC50 (CCRF-CEM): > -4.00 Molar
Log10TGI (CCRF-CEM): > -4.00 Molar
GI50 (CCRF-CEM): 1.95 µM
Log10GI50 (CCRF-CEM; listed as (aR)-DM-MTC): -5.71 Molar
Log10GI50 (UACC-257): -5.11 Molar
Log10LC50 (UACC-257): > -4.00 Molar
Log10TGI (UACC-257): > -4.00 Molar
GI50 (UACC-257): 7.76 µM
Log10GI50 (UACC-257; listed as (aR)-DM-MTC): -5.11 Molar
Log10GI50 (HS 578T): -5.81 Molar
Log10LC50 (HS 578T): > -4.00 Molar
GI50 (HS 578T): 1.55 µM
Log10GI50 (HS 578T; listed as (aR)-DM-MTC): -5.81 Molar
Log10GI50 (HCT-116): -5.71 Molar
Log10LC50 (HCT-116): > -4.00 Molar
Log10TGI (HCT-116): > -4.00 Molar
GI50 (HCT-116): 1.95 µM
Log10GI50 (HCT-116; listed as (aR)-DM-MTC): -5.71 Molar
Log10GI50 (HOP-92): -5.45 Molar
Log10LC50 (HOP-92): > -4.00 Molar
Log10TGI (HOP-92): > -4.00 Molar
GI50 (HOP-92): 3.55 µM
Log10GI50 (HOP-92; listed as (aR)-DM-MTC): -5.45 Molar
GI50 (KM12; Homo sapiens, KM12 (printed KM29)): 1620 nM
Log10GI50 (KM12; KM12): -5.79 Molar
Log10LC50 (KM12; KM12): > -4.00 Molar
Log10TGI (KM12; KM12): > -4.00 Molar
Log10GI50 (KM12; KM12, listed as (aR)-DM-MTC): -5.79 Molar
Log10GI50 (MDA-MB-435): -6.57 Molar
Log10LC50 (MDA-MB-435): > -4.00 Molar
Log10TGI (MDA-MB-435): -6.13 Molar
GI50 (MDA-MB-435): 270 nM
Log10GI50 (MDA-MB-435; listed as (aR)-DM-MTC): -6.57 Molar

COc1cc(C)c(-c2ccc(=O)c(OC)cc2C)c(OC)c1OC (single isomer, unassigned) [(aR)-iso-6]
Kd [1]: nb
Log10GI50 (T-47D): > -4.00 Molar
Log10LC50 (T-47D): > -4.00 Molar
Log10TGI (T-47D): > -4.00 Molar
Log10GI50 (SF-295): > -4.00 Molar
Log10LC50 (SF-295): > -4.00 Molar
Log10TGI (SF-295): > -4.00 Molar
Log10GI50 (ACHN): > -4.00 Molar
Log10LC50 (ACHN): > -4.00 Molar
Log10TGI (ACHN): > -4.00 Molar
Log10GI50 (NCI-H23): > -4.00 Molar
Log10LC50 (NCI-H23): > -4.00 Molar
Log10TGI (NCI-H23): > -4.00 Molar
Log10GI50 (CCRF-CEM): > -4.00 Molar
Log10LC50 (CCRF-CEM): > -4.00 Molar
Log10TGI (CCRF-CEM): > -4.00 Molar
Log10GI50 (UACC-257): > -4.00 Molar
Log10LC50 (UACC-257): > -4.00 Molar
Log10TGI (UACC-257): > -4.00 Molar
Log10GI50 (HS 578T): > -4.00 Molar
Log10LC50 (HS 578T): > -4.00 Molar
Log10TGI (HS 578T): > -4.00 Molar
Log10GI50 (HCT-116): > -4.00 Molar
Log10LC50 (HCT-116): > -4.00 Molar
Log10TGI (HCT-116): > -4.00 Molar
Log10GI50 (HOP-92): > -4.00 Molar
Log10LC50 (HOP-92): > -4.00 Molar
Log10TGI (HOP-92): > -4.00 Molar
Log10GI50 (MDA-MB-435): > -4.00 Molar
Log10LC50 (MDA-MB-435): > -4.00 Molar
Log10TGI (MDA-MB-435): > -4.00 Molar

COc1cc(C)c(-c2ccc(=O)c(OC)cc2C)c(OC)c1OC (single isomer, unassigned) [(aS)-iso-6]
Kd [1]: nb
Log10GI50 (T-47D): -4.58 Molar
Log10LC50 (T-47D): > -4.00 Molar
Log10TGI (T-47D): > -4.00 Molar
GI50 (T-47D): 26.3 µM
Log10GI50 (T-47D; […]): -4.58 Molar
Log10GI50 (SF-295): -4.64 Molar
Log10LC50 (SF-295): > -4.00 Molar
Log10TGI (SF-295): > -4.00 Molar
GI50 (SF-295): 25.7 µM
Log10GI50 (SF-295; […]): -4.59 Molar
Log10GI50 (ACHN): -4.07 Molar
Log10LC50 (ACHN): > -4.00 Molar
Log10TGI (ACHN): > -4.00 Molar
GI50 (ACHN): 85.1 µM
Log10GI50 (ACHN; […]): -4.07 Molar
Log10GI50 (NCI-H23): -4.33 Molar
Log10LC50 (NCI-H23): > -4.00 Molar
Log10TGI (NCI-H23): > -4.00 Molar
GI50 (NCI-H23): 46.8 µM
Log10GI50 (NCI-H23; […]): -4.33 Molar
Log10GI50 (CCRF-CEM): -4.53 Molar
Log10LC50 (CCRF-CEM): > -4.00 Molar
Log10TGI (CCRF-CEM): > -4.00 Molar
GI50 (CCRF-CEM): 29.5 µM
Log10GI50 (CCRF-CEM; […]): -4.53 Molar
Log10GI50 (UACC-257): -4.15 Molar
Log10LC50 (UACC-257): > -4.00 Molar
Log10TGI (UACC-257): > -4.00 Molar
GI50 (UACC-257): 70.8 µM
Log10GI50 (UACC-257; […]): -4.15 Molar
Log10GI50 (HS 578T): -4.80 Molar
Log10LC50 (HS 578T): > -4.00 Molar
Log10TGI (HS 578T): -4.19 Molar
GI50 (HS 578T): 15.8 µM
Log10GI50 (HS 578T; […]): -4.8 Molar
Log10GI50 (HCT-116): -4.60 Molar
Log10LC50 (HCT-116): > -4.00 Molar
Log10TGI (HCT-116): > -4.00 Molar
GI50 (HCT-116): 25.1 µM
Log10GI50 (HCT-116; […]): -4.6 Molar
Log10GI50 (HOP-92): -4.99 Molar
Log10LC50 (HOP-92): > -4.00 Molar
Log10TGI (HOP-92): > -4.00 Molar
GI50 (HOP-92): 10.2 µM
Log10GI50 (HOP-92; […]): -4.99 Molar
Log10GI50 (MDA-MB-435): -5.46 Molar
Log10LC50 (MDA-MB-435): > -4.00 Molar
Log10TGI (MDA-MB-435): -4.81 Molar
GI50 (MDA-MB-435): 3470 nM
Log10GI50 (MDA-MB-435; […]): -5.46 Molar
